The text below walks through data of the NIST ThermoML archive (doi:10.1021/je0502851).

For series [1] the following is noted: Crystal; DTA.
Series [2] in a line: Molar enthalpy of transition or fusion. The settings on record: Crystal; DSC.

Numbers after ± are expanded uncertainties.

Take `NCCCCCCN` [1,6-hexanediamine]: the Normal melting temperature in series [1] was 38.5 ± 0.53 °C. Besides, in series [2], the “Molar enthalpy of transition or fusion” value turned out to be 9.41 ± 0.263 kcal/mol.
The matching figures for `NCCCCCCCCN` [1,8-diaminooctane]: 51.73 ± 0.53 °C and 12.1 ± 0.359 kcal/mol.
The matching figures for `NCCCCCCCCCCCCN` [1,12-dodecanediamine]: 68.69 ± 0.53 °C and 16 ± 0.359 kcal/mol.
The matching figures for `c1ccc2ccccc2c1` [naphthalene]: 81.54 ± 0.53 °C and 4.67 ± 0.215 kcal/mol.
